{"source": "patent US20260108588A1", "about": "“A COMPLEX COMPRISING A ALPHA-LACTALBUMIN AND A FATTY ACID OR LIPID FOR USE IN THE TREATMENT OR PREVENTION OF CANCER” (LINNANE PHARMA AB, priority 2022, published 2026)", "key": {"[1]": {"tested_on": "Wnt/β-catenin signaling pathway", "experiment": "Gene expression analysis of lungs, livers and kidneys of Apc^Min/+ mice", "format": "in vivo", "details": "BAMLET treated compared to sham treated Apc^Min/+ mice"}, "DLD1 cells": {"tested_on": "DLD1 cells", "experiment": "Colony assay", "format": "cell-based, human", "details": "DLD1, 7, 21 and 35 μM", "description": "(§1) Cells were seeded on 12-well plates (1×10^3 cells/well) and incubated overnight. Cells were treated with different complexes: BAMLET (7, 21, and 35 μM) or alpha1-oleate (7, 21, and 35 μM) in serum-free media and incubated for one hour at 37° C., 5% CO2. The incubation was continued after the addition of FCS to the media. On day ten post-treatment, the cells were washed once and fixed with cold methanol (300 μl) for 15 minutes on ice. Finally, colonies of cells were stained with hematoxylin (ThermoFisher Scientific, Cat #7211) for five minutes and images were captured under a dissecting microscope (Carl Zeiss). The experiment was repeated twice for each cell line."}, "HT29 cells": {"tested_on": "HT29 cells", "experiment": "Colony assay", "format": "cell-based, human", "details": "HT29, 7, 21 and 35 μM", "description": "as §1"}, "[2]": {"tested_on": "VEGF, Ki67, Cyclin D1 and β-catenin", "experiment": "Immunohistochemistry of intestinal sections for tumor markers", "format": "in vivo, mice", "details": "vs sham", "source_text": "Swiss rolls of longitudinally opened intestinal segments were fixed overnight in 10% neutral buffered formalin. Samples were embedded in paraffin and 5 μm thick sections were further processed for histology and immunohistochemistry using antibodies for bovine alpha-Lactalbumin (ThermoFisher Scientific, Cat #A10-128A), β-catenin (CellSignaling, Cat #9562), Cyclin D1 (ThermoFisher Scientific, Cat #SC8396), Ki-67 (BD Biosciences, Cat #556003), VEGF (Abcam, Cat #ab46154), PD-1 (Abcam, Cat #ab214421) and TTF-1 (Abcam, Cat #ab227652) as previously described^28 with slight modifications. Citrate buffer (Dako Target Retrieval Solution, Agilent, Cat #S1699) was used for antigen retrieval for Cyclin D1, Ki-67, VEGF, bovine alpha-Lactalbumin and β-catenin staining. EDTA buffer (Abcam, Cat #ab64216) was used for antigen retrieval for TTF-1 staining. Immunohistochemistry was quantified by ImageJ. For Hematoxylin-Eosin (H&E) staining, Hematoxylin (ThermoFisher Scientific, Cat #7211) was used followed by Eosin-Y (ThermoFisher Scientific, Cat #7111) for counterstaining. Images were captured using the AX10 microscope or the Hamamatzu Nanozoomer scanner (Carl Zeiss) and the DAB-positive beta-catenin antibody fields (4-10) for each organ cross-sections were quantified by ImageJ."}}}
{"substance": "BAMLET", "values": [{"measurement": "Wnt/β-catenin signaling pathway in lungs, livers and kidneys (gene expression)", "setting": "[1]", "value": "down-regulated"}, {"measurement": "colony-forming cells after ten days", "setting": "DLD1 cells", "value": "lasting effect"}, {"measurement": "colony-forming cells after ten days", "setting": "HT29 cells", "value": "lasting effect"}, {"measurement": "expression of tumor markers VEGF, Ki67, Cyclin D1 and β-catenin", "setting": "[2]; intestinal sections, five weeks post gavage and eight weeks drinking water", "value": "less strongly expressed"}, {"measurement": "β-catenin staining of intestinal sections", "setting": "[2]; long-term BAMLET in drinking water", "value": "markedly reduced"}]}
